Results reported in patent US20260325515A1, “TREATMENT OF CANINE CANCERS” (OneHealthCompany, Inc., priority 2023, published 2026).

Legend:
Format in all cases: in vivo, canine (dogs)
Osteosarcoma = experiment: Survival of dogs with osteosarcoma treated with Olaparib (Cox proportional-hazards model)
Text: (§1) A Cox proportional-hazards model was used to fit survival time. The model estimates the risk of death at a given time, h(t|X)=h(t)*exp(X1β1+ . . . +Xpβp), where h represents the risk of death at time t, and X represents p covariates. Additionally, the ratio of the hazard rates in the treatment group versus the control group is represented as the hazard ratio.
(§2) A one-hot encoded feature for each targeted therapy (treatment) received by the dog was created. For example, if a dog receives multiple treatments, the encoding for each treatment would be a “1,” otherwise, a treatment is encoded as “0”. Similarly, gene mutations were one-hot encoded and treated as independent variables during the analyses. Tumor types were grouped into broad categories to preserve sample size and include them as one-hot encoded features.
(§3) Each dog's survival time and status were determined based on their last known update, which was reported by the veterinarian's office. A dog is only considered deceased if there is a reported date of death, and is only considered to have survived up until the last known update. Two survival intervals were computed: survival from time of diagnosis and survival from time of treatment. When reporting hazard ratios regardless of intervention, survival time is defined as survival from time of diagnosis, which is the time from diagnosis to last known update if the dog is still active, and the time from diagnosis to death if the dog is deceased. When reporting hazard ratios for specific treatments, survival time is defined as survival from treatment. The first date of any targeted therapy being ordered is used as the start of the treatment date.
(§4) Demographic features, including weight in kilograms, sex, and reproductive status (neutered or spayed vs intact), were extracted and used as covariates in the Cox model. In addition, to control for each dog's baseline survival rates, the dog's age at diagnosis, as well as the time from diagnosis to treatment are included, which is computed by […].

[1] = system: TP53-mutated canine tumors; experiment: Real-world clinico-genomic analysis, TP53-mutated canine tumors
Description: (§5) Briefly, real-world clinico-genomic data from 3000 dogs were analyzed.

BRCA1-mutated cases = experiment: Real-world clinico-genomic analysis, BRCA1-mutated cases; details: Olaparib, P=0.004
Description: as §5

[2] = system: TP53 mutant osteosarcomas; experiment: Real-world clinico-genomic analysis, TP53 mutant osteosarcomas; details: Olaparib, P<0.001
Description: as §5

[3] = system: soft tissue sarcomas with TP53 mutations; experiment: Real-world clinico-genomic analysis, soft tissue sarcomas with TP53 mutations
Description: as §5

Anal Sac carcinoma = experiment: Survival of dogs with anal sac carcinoma with Olaparib; details: 85 without Olaparib
Text: A significant survival benefit in dogs with anal sac carcinoma treated with Olaparib was observed. Dogs receiving Olaparib achieved a median survival of 422 days compared to 273 days in untreated cases, with a hazard ratio of 0.319 and a statistically significant p-value of 0.023 (Table 2).

[4] = system: oral malignant melanoma carrying BRCA1/2 mutations; experiment: Survival of dogs with oral malignant melanoma carrying BRCA1/2 mutations treated with Olaparib; details: oral malignant melanoma with BRCA1/2 mutations, vs 235 days for other biomarker profiles and alternative drugs, P=0.0120
Melanoma = experiment: Survival of dogs with melanoma treated with Palbociclib (Cox proportional-hazards model)
Text: as §1, §2, §3, §4

[5] = system: RB1-mutated canine tumors; experiment: Real-world clinico-genomic analysis, RB1-mutated canine tumors; details: Rapamycin, P=0.024
Description: as §5

Squamous cell carcinoma = experiment: Survival of dogs with squamous cell carcinoma treated with Toceranib (Cox proportional-hazards model)
Text: as §1, §2, §3, §4

carcinoma = experiment: Survival of dogs with carcinoma with Toceranib; details: 65 without Toceranib
Text: Dogs receiving Toceranib achieved a median survival of 419 days compared to 250 days in untreated cases, with a hazard ratio of 0.292 and a statistically significant p-value of 0.003 (Table 3).

With `O=C(c1cc(Cc2n[nH]c(=O)c3ccccc23)ccc1F)N1CCN(C(=O)C2CC2)CC1` [Olaparib] the “Median survival (#patients) with treatment” value (from here on “Median survival (#patients)”) (Osteosarcoma; dogs, 16 patients with treatment, 154 d (158) without treatment) was “Inf (16)”, the “Hazard Ratio (Signal Efficacy)” value (Osteosarcoma; dogs, treatment vs control, P = 0.021) was 0.181 and the “median survival” value (Osteosarcoma; vs. 154 days without treatment) was “no death observed”. The “OS HR” value ([1]; TP53-mutated cases, Olaparib, P<0.001) was 0.34, the “OS HR” value (BRCA1-mutated cases) was 0.39 and the “OS HR” value [2] was 0.11. For the same compound, the “OS HR” value ([3]; Olaparib, P=0.011) was 0.07, the “Median Survival With Olaparib” value (Anal Sac carcinoma; 13 dogs with, without Olaparib 372 days (Table 2) / 273 days) was 422 days and the “Hazard Ratio” value (Anal Sac carcinoma; 95% CI (0.119-0.855), p-value 0.023, 13 dogs with) was 0.319. The median survival [4] was 448 days.
With `CC(=O)c1c(C)c2cnc(Nc3ccc(N4CCNCC4)cn3)nc2n(C2CCCC2)c1=O` [Palbociclib] the “Median survival (#patients)” value (Melanoma; dogs, 13 patients with treatment, 159 d (114) without treatment) was 433 d (13), the “Hazard Ratio (Signal Efficacy)” value (Melanoma; dogs, treatment vs control, P = 0.043) was 0.273 and the “median survival” value (Melanoma; vs. 159 days without treatment) was 433 days.
In the case of `CO[C@H]1C[C@@H]2CC[C@@H](C)[C@@](O)(O2)C(=O)C(=O)N2CCCC[C@H]2C(=O)O[C@H]([C@H](C)C[C@@H]2CC[C@@H](O)[C@H](OC)C2)CC(=O)[C@H](C)/C=C(\C)[C@@H](O)[C@@H](OC)C(=O)[C@H](C)C[C@H](C)/C=C/C=C/C=C/1C` [Rapamycin], the “OS HR” value ([1]; TP53-mutated canine tumors, Rapamycin, P=0.028) is reported as 0.73, the “OS HR” value [5] is reported as 0.32 and the “OS HR” value ([3]; Rapamycin, P=0.012) is reported as 0.11.
For `Cc1[nH]c(/C=C2\C(=O)Nc3ccc(F)cc32)c(C)c1C(=O)NCCN1CCCC1` [Toceranib], the “Median survival (#patients)” value (Squamous cell carcinoma; dogs, 13 patients with treatment, 183 d (32) without treatment) was 577 d (13), the “Hazard Ratio (Signal Efficacy)” value (Squamous cell carcinoma; dogs, treatment vs control, P = 0.005) was 0.072 and the “median survival” value (Squamous cell carcinoma; vs. 183 days without treatment) was 577 days. The “Median Survival With Toceranib” value (carcinoma; 26 dogs with, without Toceranib 250 days) was 419 days and the “Hazard Ratio” value (carcinoma; 95% CI printed (1.31-0.65), p-value 0.003, 26 dogs with) was 0.292.
